Laboratory results reported in ChEMBL document CHEMBL1130632, “Polycyclic aromatic compounds as anticancer agents: synthesis and biological evaluation of some chrysene derivatives” (Bioorg Med Chem Lett, 1998).
In brackets after ≈: the same amount, converted by molar mass.

Columns and labels:
Assay type in all cases: functional, cell-based
BRO melanoma cell line = assay: Compound was evaluated for the growth inhibition of BRO melanoma cell line.; conditions: Homo sapiens
MCF7 = assay: Compound was evaluated for the growth inhibition of MCF-7 breast cell line.; conditions: Homo sapiens
SK-MEL-2 = assay: Compound was evaluated for the growth inhibition of […] melanoma cell line.; conditions: Homo sapiens
HT-29 = assay: Compound was evaluated for the growth inhibition of HT-29 colon cell line.; conditions: Homo sapiens
P388 = assay: Compound was evaluated for the growth inhibition of p388/0 leukemia cell line.; conditions: Mus musculus

| SMILES | IC50 (BRO melanoma cell line) | IC50 (MCF7) | IC50 (SK-MEL-2) | IC50 (HT-29) | IC50 (P388) |
| --- | --- | --- | --- | --- | --- |
| O=C(CCC(=O)N1CCCCC1)Nc1cc2c3ccccc3ccc2c2ccccc12 | 15 µg/mL (≈ 36.5 µM) | 11.5 µg/mL (≈ 28 µM) | 15.9 µg/mL (≈ 38.7 µM) | 10.1 µg/mL (≈ 24.6 µM) | 12.2 µg/mL (≈ 29.7 µM) |
| CN1CCN(C(=O)CCC(=O)Nc2ccc3c(ccc4c5ccccc5ccc34)c2)CC1 | 9.5 µg/mL (≈ 22.3 µM) | 9.8 µg/mL (≈ 23 µM) | 9.2 µg/mL (≈ 21.6 µM) | 4.8 µg/mL (≈ 11.3 µM) | 7.9 µg/mL (≈ 18.6 µM) |
| O=C(CCC(=O)N1CCCCC1)Nc1ccc2c(ccc3c4ccccc4ccc23)c1 | 17.3 µg/mL (≈ 42.1 µM) | 10.2 µg/mL (≈ 24.8 µM) | 13.3 µg/mL (≈ 32.4 µM) | 8.5 µg/mL (≈ 20.7 µM) | 10.5 µg/mL (≈ 25.6 µM) |
| CN1CCN(C(=O)CCC(=O)Nc2cc3c4ccccc4ccc3c3ccccc23)CC1 | 11.8 µg/mL (≈ 27.7 µM) | 11.2 µg/mL (≈ 26.3 µM) | 10 µg/mL (≈ 23.5 µM) | 6.6 µg/mL (≈ 15.5 µM) | 9.8 µg/mL (≈ 23 µM) |
| c1ccc2c(c1)ccc1c3ccc(NCCCCN4CCCCC4)cc3ccc21 | 4.5 µg/mL (≈ 11.8 µM) | 3 µg/mL (≈ 7.84 µM) | 3.8 µg/mL (≈ 9.93 µM) | 2.3 µg/mL (≈ 6.01 µM) | 2.2 µg/mL (≈ 5.75 µM) |
| CN1CCN(CCCCNc2ccc3c(ccc4c5ccccc5ccc34)c2)CC1 | 8.8 µg/mL (≈ 22.1 µM) | 12.1 µg/mL (≈ 30.4 µM) | 8.7 µg/mL (≈ 21.9 µM) | 9.3 µg/mL (≈ 23.4 µM) | 4.7 µg/mL (≈ 11.8 µM) |
| COc1cccc2c1C(=O)c1c(O)c3c(c(O)c1C2=O)C[C@@](O)(C(=O)CO)C[C@@H]3O[C@H]1C[C@H](N)[C@H](O)[C@H](C)O1 [DOXORUBICIN] | 0.2 µg/mL (≈ 0.368 µM) | 0.4 µg/mL (≈ 0.736 µM) | 0.1 µg/mL (≈ 0.184 µM) | 0.5 µg/mL (≈ 0.92 µM) | 0.8 µg/mL (≈ 1.47 µM) |
